# Tests used:
# [1] = target: ligand binding domain (LBD) of NR4A1 (Homo sapiens, UniProt P22736); test: Fluorescence quenching binding assay with His-NR4A1 (LBD); settings: His-tagged ligand binding domain of NR4A1
# From the text: (§1) These compounds bind the receptor and are receptor antagonists. Thus, C-DIMs are the first NR4A1 antagonists that inhibit NR4A1-mediated pro-oncogenic genes/pathways. The transactivation and NR4A1 binding of the p-hydroxyphenyl (DIM-C-pPhOH) analog was initially investigated.
# Using a fluorescent binding assay, a library of C-DIM compounds were screened. Specifically, 14 different C-DIM analogs with pPhX on the bridging carbon (i.e., as R8) were screened, where X was CF3, Br, F, t-Butyl, OCH3, N-dimethylamino, H, OH, C6H5, CN, CH3, Cl, I and CO2Me. Each analog bound the ligand binding domain of NR4A1 and KD values for binding varied from 0.1-0.71 μM.
# [2] = test system: SKBR3 cells; test: Migration/invasion of SKBR3 cells; format: cell-based, human; settings: SKBR3 cells (FIGS. 16, 17)
# From the text: FIG. 16 illustrates that the NR4A1 antagonist DIM-C-pPhCO2ME inhibits migration/invasion of SKBR3 cells.
# (§2) Assessing downstream effects of the above β1-integrin inhibition, knockdown of NR4A1 (TR3) by RNA interference decrease migration and invasion performance of SKBr3 and MDA-MB-231 cells (FIG. 14). […] Moreover, the effects of other NR4A1 antagonists on migration and invasion of the breast cancer cells were investigated.
# [3] = test system: MDA-MB-231 cells; test: Migration/invasion of MDA-MB-231 cells; format: cell-based, human; settings: MDA-MB-231 cells (FIG. 15)
# From the text: FIG. 15 illustrates that the NR4A1 antagonist DIM-C-pPhCO2ME inhibits migration/invasion of MDA-MB-231 cells.
# as §2
# [4] = target: T1, NR4A1 (Homo sapiens, UniProt P22736); test: GAL4-NR4A1 / UAS5-luc transactivation reporter assay in Panc1 cells; format: cell-based; settings: Panc1 cells transfected with GAL4-NR4A1 (full length) and UAS5-luc reporter; FIG. 2A/2B
# T1 construct: Panc1 cells were transfected with a GAL4-NR4A1 (full length) construct; expressed in transfected cells; host or cells: Panc1
# From the text: as §1
# [5] = test system: β1-integrin; test: β1-integrin expression, MDA-MB-231 breast cancer cells; format: cell-based, human; settings: MDA-MB-231 cells (FIGS. 11, 12)
# [6] = test system: L3.6pL orthotopic xenograft; test: L3.6pL orthotopic xenograft in athymic nude mice, tumor lysates by Western blot; format: in vivo; settings: 30 mg/kg/d, compared to corn oil control; lysate from two animals (FIG. 10)
# From the text: The tumor lysate from two animals is shown.
# [7] = test system: L3.6pL orthotopic xenograft; settings: athymic nude mice, orthotopic model; previous studies; cited from earlier work
# [8] = test system: β1-integrin; test: β1-integrin expression, RKO colon cancer cells; format: cell-based; settings: RKO colon cancer cells (FIG. 13)
# [9] = test system: β1-integrin; test: β1-integrin expression, MCF-7 breast cancer cells; format: cell-based; settings: MCF-7 cells
# [10] = test system: pancreatic cancer cells; test: Boyden Chamber invasion assay, pancreatic cancer cells; format: cell-based; settings: 20 μM, p<0.001 (FIGS. 4A, 4B)
# From the text: FIGS. 4A and 4B illustrate that DIM-C-pPhOH decreases pancreatic cancer cell invasion in a Boyden Chamber assay. Significant inhibition with p<0.001 indicated with “#”.
# Previous studies indicate that in pancreatic cancers, NR4A1 regulates pro-survival genes (e.g. survivin) through an Sp1/p300/NR4A1 complex in which Sp1 binds promoter DNA. […] A third pathway involves activation of mTOR which is due to inactivation of p53 by binding NR4A1 and this pathway is only observed in cancer cell lines and tumors expressing wild-type p53.
# [11] = test system: β1-integrin; test: β1-integrin expression, SW480 colon cancer cells; format: cell-based; settings: SW480 colon cancer cells (FIG. 13)
# [12] = test system: pancreatic cancer cells; test: Adhesion to human fibronectin-coated plates, pancreatic cancer cells; format: cell-based; settings: 20 μM, p<0.001 / p<0.005 (FIG. 9)
# Procedure: Significant inhibition with p<0.001 indicated with “#” and significant inhibition with p<0.005 indicated with “***”.
# (§3) Discovery of NR4A1-regulated pro-invasion/migration genes was determined using Illumina Human HT-12V4 Beadchip arrays (FIGS. 5A and 5B). Knockdown of NR4A1 in Panc1 cells decreased expression of β1-integrin which is known to play an important role in cell migration and invasion. […] The loss of α5-integrin may be indirect since it was previously reported that β1-integrin silencing by RNAi decreased α5-integrin. […] Decreased adhesion to fibronectin-coated plates was also observed in pancreatic cancer cells treated with DIM-C-pPhOH (FIG. 9), confirming that siNR4A1 and NR4A1 antagonists decrease expression of β1-integrin. This represents a novel approach for targeting this pro-oncogenic factor in pancreatic cancer.
# [13] = test system: β1-integrin; test: β1-integrin expression, SKBR3 breast cancer cells; format: cell-based, human; settings: SKBR3 cells (FIGS. 11, 12)
# [14] = test system: β1-integrin; test: Expression of β1-integrin and related gene products, pancreatic cancer cells; format: cell-based; settings: 20 μM (FIG. 7)
# Procedure: as §3
# [15] = test system: pancreatic cancer cells; settings: stated with previous studies; cited from earlier work
# Chain of ligand binding domain (LBD) of NR4A1 (P22736 360-595 limits assumed): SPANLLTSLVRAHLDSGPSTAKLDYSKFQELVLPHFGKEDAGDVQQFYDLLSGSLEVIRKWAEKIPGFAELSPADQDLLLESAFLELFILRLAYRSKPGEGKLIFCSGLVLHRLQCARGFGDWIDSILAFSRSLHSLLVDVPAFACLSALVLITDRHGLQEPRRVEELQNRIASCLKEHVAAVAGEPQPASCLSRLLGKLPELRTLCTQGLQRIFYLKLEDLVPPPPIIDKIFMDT
# T1 sequence (P22736 whole entry, the tested form may be a part): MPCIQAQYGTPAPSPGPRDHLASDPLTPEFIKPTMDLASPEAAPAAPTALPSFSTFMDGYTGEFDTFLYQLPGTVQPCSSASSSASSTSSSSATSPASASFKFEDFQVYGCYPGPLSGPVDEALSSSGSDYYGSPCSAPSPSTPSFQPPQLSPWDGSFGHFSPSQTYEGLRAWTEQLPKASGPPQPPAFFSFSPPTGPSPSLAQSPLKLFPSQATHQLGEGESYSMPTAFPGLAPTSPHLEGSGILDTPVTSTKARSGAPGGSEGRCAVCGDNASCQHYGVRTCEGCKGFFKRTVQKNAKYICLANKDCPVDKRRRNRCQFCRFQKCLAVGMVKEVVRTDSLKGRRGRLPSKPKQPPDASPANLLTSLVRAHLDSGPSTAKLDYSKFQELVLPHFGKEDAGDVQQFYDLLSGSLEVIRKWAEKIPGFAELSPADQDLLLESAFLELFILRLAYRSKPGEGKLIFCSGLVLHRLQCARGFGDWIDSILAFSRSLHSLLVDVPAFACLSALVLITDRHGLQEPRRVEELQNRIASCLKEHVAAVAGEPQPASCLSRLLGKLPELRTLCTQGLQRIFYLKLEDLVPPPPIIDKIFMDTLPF
"binding to His-NR4A1 (LBD), fluorescence quenching [1]",luciferase activity (NR4A1-dependent transactivation) [4],Structure (SMILES),migration and invasion [2],migration and invasion [3],β1-integrin expression [5],expression of α5-integrin in tumor lysates [6],expression of β1-integrin in tumor lysates [6],tumor growth [7],β1-integrin expression [8],β1-integrin expression [9],invasion [10],β1-integrin expression [11],cell adhesion to human fibronectin-coated plates [12],β1-integrin expression [13],β1-integrin and related gene products [14],apoptosis [15],pancreatic cancer cell growth [15]
binds the LBD of NR4A1,inhibits NR4A-dependent transactivation,COC(=O)c1ccc(C(c2c[nH]c3ccccc23)c2c[nH]c3ccccc23)cc1 [DIM-C-pPhCO2Me],inhibits migration and invasion,inhibits migration and invasion,–,–,–,–,–,–,–,–,–,–,–,–,–
quenches fluorescence,decreased luciferase activity,"Oc1ccc(C(c2c[nH]c3ccccc23)c2c[nH]c3ccccc23)cc1 [DIM-C-pPhOH, 1,1-bis(3′-indolyl)-1-(p-hydroxyphenyl)methane]",–,–,decreased β1-integrin expression,decreases expression,decreases expression,inhibits tumor growth,decreases β1-integrin expression,decreased β1-integrin expression,decreased invasion,decreases β1-integrin expression,decreases pancreatic cancer cell adhesion,decreased β1-integrin expression,decreases β1-integrin and related gene products,induce apoptosis,inhibit pancreatic cancer cell growth
